In ChEMBL document CHEMBL1201862, “PubChem BioAssay data set” (2004):
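These data come from cells grown in 96-well plates and exposed to compound for 48 hours at five concentrations. Here, GI50 denotes the concentration required for 50% inhibition of growth.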 The source made the active and inactive calls. Rule as the data show it: active = GI50 up to about 1.1 µM and inactive = higher.

What was measured:
Assay in all cases: NCI tumour cell line growth inhibition, 48 h
A549 = test system: A549
ACHN = test system: ACHN
HCT-15 = test system: HCT-15
K562 = test system: K562
KM12 = test system: KM12
LOX IMVI = test system: LOX IMVI
MOLT-4 = test system: MOLT-4
NCI-H226 = test system: NCI-H226
NCI-H522 = test system: NCI-H522
OVCAR-8 = test system: OVCAR-8
SF-268 = test system: SF-268
SK-MEL-28 = test system: SK-MEL-28
SNB-75 = test system: SNB-75
U-251 = test system: U-251
HOP-92 = test system: HOP-92
CAKI-1 = test system: CAKI-1

Row | Compound | GI50 (A549) | GI50 (ACHN) | GI50 (HCT-15) | GI50 (K562) | GI50 (KM12) | GI50 (LOX IMVI) | GI50 (MOLT-4) | GI50 (NCI-H226) | GI50 (NCI-H522) | GI50 (OVCAR-8) | GI50 (SF-268) | GI50 (SK-MEL-28) | GI50 (SNB-75) | GI50 (U-251) | GI50 (HOP-92) | GI50 (CAKI-1)
1 | O=C(CSc1nnc(-c2ccc(/N=C\c3ccc(Cl)cc3)cc2)o1)Nc1ccccc1Cl | > 100 µM (inactive) | > 100 µM (inactive) | > 100 µM | > 100 µM (inactive) | > 100 µM (inactive) | > 100 µM (inactive) | > 100 µM (inactive) | > 100 µM (inactive) | > 100 µM (inactive) | > 100 µM (inactive) | > 100 µM (inactive) | > 100 µM (inactive) | > 100 µM (inactive) | > 100 µM (inactive) |  | 
2 | COc1cccc2c1OC1Sc3ccccc3-c3nn(-c4ccccc4)c-2c31 (configuration not stated) | > 100 µM (inactive) | > 100 µM (inactive) |  | > 100 µM (inactive) | > 100 µM (inactive) | > 100 µM (inactive) | > 100 µM (inactive) |  | 26.7 µM (inactive) | > 100 µM (inactive) | > 100 µM (inactive) | > 100 µM (inactive) | > 100 µM (inactive) | > 100 µM (inactive) | > 100 µM (inactive) | 
3 | COc1ccc2c(CN3CCCCC3CO)cc3cc(OC)c(OC)cc3c2c1 (configuration not stated) | 3.97 µM (inactive) | 3.5 µM (inactive) | 4.38 µM | 2.59 µM (inactive) | 4.35 µM (inactive) | 3.32 µM (inactive) | 2.82 µM (inactive) | 4.32 µM (inactive) | 2.52 µM (inactive) | 4.42 µM (inactive) | 6.28 µM (inactive) | 6.32 µM (inactive) | 8.53 µM (inactive) | 5.85 µM (inactive) | 2.1 µM (inactive) | 
4 | COC1OC(CBr)C(OC(=O)c2ccccc2)C(O)C1Br (configuration not stated) | > 100 µM (inactive) |  | > 100 µM | > 100 µM (inactive) | > 100 µM (inactive) | > 100 µM (inactive) | > 100 µM (inactive) | > 100 µM (inactive) | > 100 µM (inactive) | > 100 µM (inactive) | > 100 µM (inactive) | > 100 µM (inactive) |  | > 100 µM (inactive) | > 100 µM (inactive) | > 100 µM (inactive)
5 | CN(C(=N)c1ccccc1)c1ccccc1 | > 100 µM (inactive) |  | > 100 µM | > 100 µM (inactive) | > 100 µM (inactive) | 84.7 µM (inactive) | > 100 µM (inactive) | > 100 µM (inactive) |  | > 100 µM (inactive) |  | > 100 µM (inactive) | 47.6 µM (inactive) | > 100 µM (inactive) | 51.5 µM (inactive) | 
6 | COc1cc2c(cc1OC)/C(=C\c1ccccc1N)C(=O)OC2 | 32.1 µM (inactive) | 18.3 µM (inactive) | 7.19 µM | 3.02 µM (inactive) | 13.9 µM (inactive) | 2.11 µM (inactive) | 2.31 µM (inactive) |  | 1.56 µM (inactive) | > 10 µM (inactive) | 20.9 µM (inactive) | 17 µM (inactive) | 10.3 µM (inactive) | 18.5 µM (inactive) | 12.4 µM (inactive) | 12 µM (inactive)
7 | O=C(CSc1nnc(Cc2ccccc2)o1)Nc1cccc(Cl)c1 | > 100 µM (inactive) | 46.9 µM (inactive) | 98.4 µM | 46.6 µM (inactive) | > 100 µM (inactive) | 64.4 µM (inactive) | 79.3 µM (inactive) | > 100 µM (inactive) | 40.9 µM (inactive) | > 100 µM (inactive) | > 100 µM (inactive) | > 100 µM (inactive) | 25.9 µM (inactive) | > 100 µM (inactive) |  | 92.5 µM (inactive)
8 | CC1(c2ccccc2)CC(c2ccccc2)=NO1 (configuration not stated) | > 100 µM (inactive) | > 100 µM (inactive) | > 100 µM | > 100 µM (inactive) | > 100 µM (inactive) |  | > 100 µM (inactive) | > 100 µM (inactive) | > 100 µM (inactive) | > 100 µM (inactive) | > 100 µM (inactive) | > 100 µM (inactive) | > 100 µM (inactive) | > 100 µM (inactive) | > 100 µM (inactive) | > 100 µM (inactive)
9 | O=C(NNC(=O)c1cc(/C=C/c2cccc([N+](=O)[O-])c2)nc(S)n1)Nc1ccc(Cl)cc1 | 70 µM (inactive) | > 100 µM (inactive) | 35.6 µM | 39.2 µM (inactive) | 98.9 µM (inactive) | 20 µM (inactive) | 23.6 µM (inactive) | > 100 µM (inactive) | 22.7 µM (inactive) | 68.4 µM (inactive) | > 100 µM (inactive) | > 100 µM (inactive) | > 100 µM (inactive) | 14.8 µM (inactive) |  | 
10 | NC(=O)NNC/C(Cl)=C(\Cl)C(=O)O | > 100 µM (inactive) | > 100 µM (inactive) | > 100 µM | > 100 µM (inactive) | > 100 µM (inactive) | > 100 µM (inactive) | > 100 µM (inactive) | > 50 µM (inactive) | > 100 µM (inactive) | > 100 µM (inactive) | > 100 µM (inactive) | > 100 µM (inactive) | < 0.01 µM (active) | > 100 µM (inactive) |  | > 100 µM (inactive)
